Laboratory results published in patent US8048873B2, “Synergistic pharmaceutical combination for the prevention or treatment of diabetes” (N-Gene Research Laboratories, Inc., priority 2001, dated 2011).

Tested on: New Zealand white rabbits
Assay: Hyperinsulinaemic euglycaemic glucose clamp studies (insulin sensitivity by glucose infusion rate at steady state)
Assay type: in vivo, rabbit
Settings: measured on 6th day
Method: Adult male New Zealand white rabbits weighing 3-3.2 kg, housed in an animal room (12-hour light/dark periods a day, temperature of 22-25° C., relative humidity of 50-70%) with one animal per pen, fed commercial laboratory chow and tap water ad libitum, were used throughout. The animals underwent surgery after a two-week adaptation period.
Surgery was performed under aseptic conditions. The rabbits were anaesthetized with an intravenous bolus of 10 mg/kg diazepam (Sigma, St. Louis, Mo., USA) and 5 mg/kg ketamine (EGIS Pharmaceuticals Ltd., Budapest, Hungary). […] Polyethylene catheters were inserted into two major branches of the jugular vein and the left carotid artery. The catheters were exteriorised through the back of the neck. These lines were kept patent by filling with sodium heparin solution (100 IU/ml).
Hyperinsulinaemic Euglycaemic Glucose Clamp Studies
Blood samples (0.3 ml) were taken from the arterial cannula for blood glucose concentration at 10 min intervals. […] When blood glucose had stabilized for at least 30 min, we defined this condition as steady state. In the steady state, additional blood samples (0.5 ml) were taken for plasma insulin determination at 10-min intervals. The glucose infusion rate (mg/kg/min) during steady state was used to characterize insulin sensitivity [DeFronzo R. A. et al., Am. […] The test compound(s) was/were administered to healthy and hypercholesterolaemic animals, respectively, perorally, in a single dose, daily, for five days, and the glucose infusion rates determined on the 6th day were averaged within each test group consisting of 6 animals. One group of the healthy and one of the hypercholesterolaemic animals was used as the control.
It is favourable that a higher amount of glucose should be needed at the given constant blood glucose level which indicates the enhanced effect of insulin.

| SMILES | Insulin sensitivity as characterized by the glucose infusion rate during steady state (Table 2, HC (hypercholesterolaemic) animals, troglitazone 75 mg/kg daily dose p.o. for five days) [mg/kg/min] | Insulin sensitivity as characterized by the glucose infusion rate during steady state (Table 2, normal (healthy) animals, troglitazone 75 mg/kg daily dose p.o. for five days) [mg/kg/min] | Insulin sensitivity as characterized by the glucose infusion rate during steady state (Table 1, HC (hypercholesterolaemic) animals, metformin 100 mg/kg daily dose p.o. for five days) [mg/kg/min] | Insulin sensitivity as characterized by the glucose infusion rate during steady state (Table 1, normal (healthy) animals, metformin 100 mg/kg daily dose p.o. for five days) [mg/kg/min] |
| --- | --- | --- | --- | --- |
| Cc1c(C)c2c(c(C)c1O)CCC(C)(COc1ccc(CC3SC(=O)NC3=O)cc1)O2 (racemic) [Troglitazone, (±)-5-[[4-[(3,4-dihydro-6-hydroxy-2,5,7,8-tetramethyl-2H-1-benzopyran-2-yl)methoxy]-phenyl]methyl]-2,4-thiazolidinedione] | 14.1 ± 1.33 | 14.3 ± 0.08 | – | – |
| CN(C)C(=N)N=C(N)N [Metformin, N,N-dimethylimidocarbonimidic diamide] | – | – | 11.7 ± 0.87 | 15.8 ± 0.83 |
